# Test results taken from PubChem BioAssay (NCI).
#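 How tested: cells in 96-well plates exposed to compound for 48 hours at five concentrations. GI50 marks 50% less growth. TGI is the concentration that stops growth completely.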
# Assays:
# Assay in all cases: growth of human tumour cells (NCI), 48 h
# MDA-N = tested on: MDA-N
# 786-0 renal = tested on: 786-0 renal
# A498 renal = tested on: A498 renal
# A549 NSCLC = tested on: A549 NSCLC
# ACHN renal = tested on: ACHN renal
# BT-549 breast = tested on: BT-549 breast
# CAKI-1 renal = tested on: CAKI-1 renal
# CCRF-CEM leukemia = tested on: CCRF-CEM leukemia
# COLO 205 colon = tested on: COLO 205 colon
# DU-145 prostate = tested on: DU-145 prostate
# EKVX NSCLC = tested on: EKVX NSCLC
# HCC-2998 colon = tested on: HCC-2998 colon
# HCT-116 colon = tested on: HCT-116 colon
# HCT-15 colon = tested on: HCT-15 colon
# HL-60(TB) leukemia = tested on: HL-60(TB) leukemia
# HOP-62 NSCLC = tested on: HOP-62 NSCLC
# HOP-92 NSCLC = tested on: HOP-92 NSCLC
# HS 578T breast = tested on: HS 578T breast
# HT29 colon = tested on: HT29 colon
# IGROV1 ovarian = tested on: IGROV1 ovarian
# K-562 leukemia = tested on: K-562 leukemia
# KM12 colon = tested on: KM12 colon
# LOX IMVI melanoma = tested on: LOX IMVI melanoma
# M14 melanoma = tested on: M14 melanoma
# MALME-3M melanoma = tested on: MALME-3M melanoma
# MCF7 breast = tested on: MCF7 breast
# MDA-MB-231 breast = tested on: MDA-MB-231 breast
# MDA-MB-435 = tested on: MDA-MB-435
# MOLT-4 leukemia = tested on: MOLT-4 leukemia
# NCI-H226 lung = tested on: NCI-H226 lung
# NCI-H23 lung = tested on: NCI-H23 lung
# NCI-H460 lung = tested on: NCI-H460 lung
# NCI-H522 lung = tested on: NCI-H522 lung
# NCI/ADR-RES ovarian = tested on: NCI/ADR-RES ovarian
# OVCAR-3 ovarian = tested on: OVCAR-3 ovarian
# OVCAR-4 ovarian = tested on: OVCAR-4 ovarian
# OVCAR-5 ovarian = tested on: OVCAR-5 ovarian
# OVCAR-8 ovarian = tested on: OVCAR-8 ovarian
# PC-3 prostate = tested on: PC-3 prostate
# RPMI-8226 leukemia = tested on: RPMI-8226 leukemia
# RXF 393 renal = tested on: RXF 393 renal
# SF-268 CNS = tested on: SF-268 CNS
# SF-295 CNS = tested on: SF-295 CNS
# SF-539 CNS = tested on: SF-539 CNS
# SK-MEL-2 melanoma = tested on: SK-MEL-2 melanoma
# SK-MEL-28 melanoma = tested on: SK-MEL-28 melanoma
# SK-MEL-5 melanoma = tested on: SK-MEL-5 melanoma
# SK-OV-3 ovarian = tested on: SK-OV-3 ovarian
# SN12C renal = tested on: SN12C renal
# SNB-19 CNS = tested on: SNB-19 CNS
# SNB-75 CNS = tested on: SNB-75 CNS
# SR leukemia = tested on: SR leukemia
# SW-620 colon = tested on: SW-620 colon
# T-47D breast = tested on: T-47D breast
# TK-10 renal = tested on: TK-10 renal
# U251 CNS = tested on: U251 CNS
# UACC-257 melanoma = tested on: UACC-257 melanoma
# UACC-62 melanoma = tested on: UACC-62 melanoma
# UO-31 renal = tested on: UO-31 renal
compound,measurement,setting,value
N=C1C=C/[N+](=C\C=CCO)C([O-])=N1,GI50,MDA-N,> 1000 µM
same,TGI,MDA-N,> 1000 µM
N[C@H]1C[C@@H]1c1ccc(-c2cccc(O)c2)cc1,GI50,786-0 renal,29.6 µM
same,TGI,786-0 renal,> 100 µM
same,GI50,A498 renal,14.8 µM
same,TGI,A498 renal,69.6 µM
same,GI50,A549 NSCLC,50.6 µM
same,TGI,A549 NSCLC,> 100 µM
same,GI50,ACHN renal,23.2 µM
same,TGI,ACHN renal,93.3 µM
same,GI50,BT-549 breast,22.4 µM
same,TGI,BT-549 breast,> 100 µM
same,GI50,CAKI-1 renal,22.4 µM
same,TGI,CAKI-1 renal,82.9 µM
same,GI50,CCRF-CEM leukemia,29.3 µM
same,TGI,CCRF-CEM leukemia,> 100 µM
same,GI50,COLO 205 colon,29.2 µM
same,TGI,COLO 205 colon,> 100 µM
same,GI50,DU-145 prostate,42.2 µM
same,TGI,DU-145 prostate,> 100 µM
same,GI50,EKVX NSCLC,27.2 µM
same,TGI,EKVX NSCLC,> 100 µM
same,GI50,HCC-2998 colon,20 µM
same,TGI,HCC-2998 colon,67.2 µM
same,GI50,HCT-116 colon,25 µM
same,TGI,HCT-116 colon,> 100 µM
same,GI50,HCT-15 colon,26.7 µM
same,TGI,HCT-15 colon,> 100 µM
same,GI50,HL-60(TB) leukemia,17.6 µM
same,TGI,HL-60(TB) leukemia,44.9 µM
same,GI50,HOP-62 NSCLC,28.3 µM
same,TGI,HOP-62 NSCLC,> 100 µM
same,GI50,HOP-92 NSCLC,11.9 µM
same,TGI,HOP-92 NSCLC,72 µM
same,GI50,HS 578T breast,22.8 µM
same,TGI,HS 578T breast,> 100 µM
same,GI50,HT29 colon,34.7 µM
same,TGI,HT29 colon,> 100 µM
same,GI50,IGROV1 ovarian,30.8 µM
same,TGI,IGROV1 ovarian,> 100 µM
same,GI50,K-562 leukemia,21 µM
same,TGI,K-562 leukemia,76.1 µM
same,GI50,KM12 colon,29.2 µM
same,TGI,KM12 colon,93.4 µM
same,GI50,LOX IMVI melanoma,14.8 µM
same,TGI,LOX IMVI melanoma,29.7 µM
same,GI50,M14 melanoma,15.7 µM
same,TGI,M14 melanoma,36.3 µM
same,GI50,MALME-3M melanoma,14.2 µM
same,TGI,MALME-3M melanoma,44.9 µM
same,GI50,MCF7 breast,22.9 µM
same,TGI,MCF7 breast,> 100 µM
same,GI50,MDA-MB-231 breast,17.6 µM
same,TGI,MDA-MB-231 breast,44 µM
same,GI50,MDA-MB-435,22.6 µM
same,TGI,MDA-MB-435,61.6 µM
same,GI50,MOLT-4 leukemia,22.3 µM
same,TGI,MOLT-4 leukemia,74.5 µM
same,GI50,NCI-H226 lung,> 100 µM
same,TGI,NCI-H226 lung,> 100 µM
same,GI50,NCI-H23 lung,37.6 µM
same,TGI,NCI-H23 lung,> 100 µM
same,GI50,NCI-H460 lung,45.9 µM
same,TGI,NCI-H460 lung,> 100 µM
same,GI50,NCI-H522 lung,15 µM
same,TGI,NCI-H522 lung,35.1 µM
same,GI50,NCI/ADR-RES ovarian,36.8 µM
same,TGI,NCI/ADR-RES ovarian,> 100 µM
same,GI50,OVCAR-3 ovarian,38.9 µM
same,TGI,OVCAR-3 ovarian,> 100 µM
same,GI50,OVCAR-4 ovarian,28.9 µM
same,TGI,OVCAR-4 ovarian,> 100 µM
same,GI50,OVCAR-5 ovarian,37.5 µM
same,TGI,OVCAR-5 ovarian,> 100 µM
same,GI50,OVCAR-8 ovarian,34 µM
same,TGI,OVCAR-8 ovarian,> 100 µM
same,GI50,PC-3 prostate,26.4 µM
same,TGI,PC-3 prostate,> 100 µM
same,GI50,RPMI-8226 leukemia,19 µM
same,TGI,RPMI-8226 leukemia,63 µM
same,GI50,RXF 393 renal,17.1 µM
same,TGI,RXF 393 renal,> 100 µM
same,GI50,SF-268 CNS,27.5 µM
same,TGI,SF-268 CNS,> 100 µM
same,GI50,SF-295 CNS,28.1 µM
same,TGI,SF-295 CNS,> 100 µM
same,GI50,SF-539 CNS,24.2 µM
same,TGI,SF-539 CNS,98.4 µM
same,GI50,SK-MEL-2 melanoma,19 µM
same,TGI,SK-MEL-2 melanoma,52.6 µM
same,GI50,SK-MEL-28 melanoma,24.3 µM
same,TGI,SK-MEL-28 melanoma,69.2 µM
same,GI50,SK-MEL-5 melanoma,15.5 µM
same,TGI,SK-MEL-5 melanoma,30.2 µM
same,GI50,SK-OV-3 ovarian,25.1 µM
same,TGI,SK-OV-3 ovarian,> 100 µM
same,GI50,SN12C renal,34.5 µM
same,TGI,SN12C renal,> 100 µM
same,GI50,SNB-19 CNS,53.8 µM
same,TGI,SNB-19 CNS,> 100 µM
same,GI50,SNB-75 CNS,11.7 µM
same,TGI,SNB-75 CNS,49 µM
same,GI50,SR leukemia,24.7 µM
same,TGI,SR leukemia,65.2 µM
same,GI50,SW-620 colon,32.1 µM
same,TGI,SW-620 colon,> 100 µM
same,GI50,T-47D breast,23 µM
same,TGI,T-47D breast,> 100 µM
same,GI50,TK-10 renal,31.1 µM
same,TGI,TK-10 renal,> 100 µM
same,GI50,U251 CNS,34.7 µM
same,TGI,U251 CNS,> 100 µM
same,GI50,UACC-257 melanoma,23.4 µM
same,TGI,UACC-257 melanoma,63.8 µM
same,GI50,UACC-62 melanoma,15.9 µM
same,TGI,UACC-62 melanoma,35 µM
same,GI50,UO-31 renal,17.7 µM
same,TGI,UO-31 renal,82.4 µM
Cc1ccc(S(=O)(=O)Nn2c(S)c(C#N)c(-c3ccc(N(C)C)cc3)c(C#N)c2=O)cc1,TGI,786-0 renal,> 100 µM
same,TGI,A498 renal,80.6 µM
same,TGI,A549 NSCLC,> 100 µM
same,TGI,ACHN renal,> 100 µM
same,TGI,BT-549 breast,67.3 µM
same,TGI,CAKI-1 renal,> 100 µM
same,TGI,CCRF-CEM leukemia,> 100 µM
same,TGI,COLO 205 colon,67.8 µM
same,TGI,DU-145 prostate,> 100 µM
same,TGI,EKVX NSCLC,> 100 µM
same,TGI,HCC-2998 colon,> 100 µM
same,TGI,HCT-116 colon,90.5 µM
same,TGI,HCT-15 colon,56.5 µM
same,TGI,HL-60(TB) leukemia,79.6 µM
same,TGI,HOP-92 NSCLC,> 100 µM
same,TGI,IGROV1 ovarian,38.5 µM
same,TGI,K-562 leukemia,> 100 µM
same,TGI,KM12 colon,52.2 µM
same,TGI,LOX IMVI melanoma,> 100 µM
same,TGI,M14 melanoma,> 100 µM
same,TGI,MALME-3M melanoma,80.6 µM
same,TGI,MCF7 breast,> 100 µM
same,TGI,MDA-MB-231 breast,> 100 µM
same,TGI,MDA-MB-435,60 µM
same,TGI,MDA-N,> 100 µM
same,TGI,MOLT-4 leukemia,> 100 µM
same,TGI,NCI-H226 lung,34.6 µM
same,TGI,NCI-H23 lung,61.1 µM
same,TGI,NCI-H460 lung,39.3 µM
same,TGI,NCI-H522 lung,37.8 µM
same,TGI,NCI/ADR-RES ovarian,97.2 µM
same,TGI,OVCAR-4 ovarian,43.1 µM
same,TGI,OVCAR-5 ovarian,> 100 µM
same,TGI,OVCAR-8 ovarian,44.9 µM
same,TGI,RPMI-8226 leukemia,91.5 µM
same,TGI,RXF 393 renal,88.3 µM
same,TGI,SF-295 CNS,> 100 µM
same,TGI,SF-539 CNS,40.7 µM
same,TGI,SK-MEL-28 melanoma,77.4 µM
same,TGI,SK-MEL-5 melanoma,45.3 µM
same,TGI,SK-OV-3 ovarian,> 100 µM
same,TGI,SN12C renal,68.2 µM
same,TGI,SNB-19 CNS,> 100 µM
same,TGI,SNB-75 CNS,> 100 µM
same,TGI,SR leukemia,> 100 µM
same,TGI,SW-620 colon,37.7 µM
same,TGI,TK-10 renal,76.2 µM
same,TGI,U251 CNS,55.6 µM
same,TGI,UACC-257 melanoma,> 100 µM
same,TGI,UACC-62 melanoma,> 100 µM
same,TGI,UO-31 renal,44.8 µM
